Results on two substances are retold here after doi:10.1101/2025.09.29.679234, “Engineered antimicrobial-derived peptides to manipulate mixed microbial systems” (bioRxiv, 2025).

Series [1] concerns L. seeligeri in a 5 species synthetic community. Kind of series: Depletion by FACS of FITC-labelled cells in the mixed community (16S V3-V4 amplicon sequencing of the fluorescence-negative population). Format: cell-based, Listeria seeligeri. The note with it: 40 μM of Ped-FITC printed in method, 4 °C 30 min, pH 6.0, 1 % BSA, 100 mM NaCl. The text has this: We posited that pediocin PA-1 characterized here could be a potential tool to modulate the abundance of specific species in an intact microbial community. To this end, we pursued two approaches: 1) using synthetic pediocin PA-1 to deplete specific species by killing and 2) using FITC-conjugated pediocin PA-1 to deplete specific species by cell sorting. To deplete L. seeligeri by killing, we created a synthetic community of L. casei, L. plantarum L. cremoris, E. faecium, and L. seeligeri and grew it for 2 h. We then split the culture into 3 parts to which we added 1 μM, 10 μM, or 0 (control) unmodified pediocin PA-1 (Lifetein), respectively. We observed that after 4 h, the proportion of L. seeligeri in the control (untreated) increased from 18 % to 60 %. […] Next, we assessed the ability of FITC-conjugated pediocin (Ped-FITC) and its 15-mer version to deplete the target species through cell sorting. Again, we created a synthetic community containing L. seeligeri in abundance and assessed the proportion before and after FACS of FITC labeled cells. We attempted to sequence the fluorescence-positive population but were unsuccessful due to poor DNA yield. However, the genomic DNA isolated from the fluorescence-negative population indicated depletion of more than 50 % in the proportion of L. seeligeri from the synthetic community (Figure 4B). […]

A further series relates to E. faecium. Nature of the series: Cell-binding assay by flow cytometry. More on the design: species or system Enterococcus faecium. The note with it: pH 6.0. The method, then:
(§1) The binding affinity and avidity of pediocin to various Gram-positive and Gram-negative bacteria were studied using flow cytometry. Late log-phase cells were washed in the sodium phosphate buffer (5 mM, pH 6.0) and resuspended at an OD600 of 10^–3 in sodium-acetate buffer (25 mM, pH 4.0), sodium phosphate buffer (5 mM, pH 6.0) or sodium phosphate buffer (5mM, pH 7.4) containing 1 % BSA (bovine serum albumin) and 100 mM NaCl. Cells were incubated with varying concentrations of the conjugated peptide at 4 °C for 30 min. The unbound peptide was removed by centrifugation, and the pellet was resuspended in their respective binding containing 1 % BSA. Flow cytometry was performed on an Attune NxT flow cytometer (Life Technologies/ThermoFisher Scientific, Carlsbad, CA). Data (≥10^4 events were recorded) was recorded using a […] (488 nm) voltage of 360 V, gating was performed on SSC-A versus SSC-H plot to reduce false events.
(In flow cytometry, cells or beads pass a laser one at a time.)

Series [2] has as its system L. seeligeri. Kind of series: Cell-binding assay by flow cytometry. More on the design: species or system Listeria seeligeri. The method, then: as §1
Series [3] relates to L. seeligeri. In kind it is cell-based, Listeria seeligeri. The note with it: Figure 1C; start OD600 0.05, 96-well plate, growth at 600 nm after 24 h; 3 pM to 3 μM, 10-fold serial dilutions; read-out: EC50 (kill-curve). On the procedure:
(§2) To determine the potency of the purified pediocin PA-1, we generated kill-curves against a range of target bacteria (Figure 1B). The concentration range tested was 3 pM to 3 μM following 10-fold serial dilutions. […] This is in approximate agreement with the published potency of pediocin PA-1 [28] . Though the molecular mass of pediocin PA-1 is expected to be 4.5 kDa, we observed the partially purified peptide to migrate with an apparent mass of ~12.5 kDa (Figure 1B). However, subsequent analysis by LC-MS yielded peaks of multiple m/z with the predominant peak at the expected molecular size of 4.6 kDa (Figure S4). The purified pediocin PA-1, separated on denaturing but non-reducing SDS-PAGE (since this bacteriocin contains two crucial disulfide bonds), was subjected to agar-overlay assay using L. seeligeri as indicator organism (Figure S5).
(§3) The antimicrobial spectrum of pediocin PA-1 was assayed using a kill curve. Cultures grown overnight were resuspended in fresh medium at an OD600 of 0.05. EC50 was determined by incubating cells with varying concentrations of pediocin in a 96-well plate, and growth was measured at 600 nm after 24 h.
Figure S7. Growth inhibition of L. seeligeri by modified and unmodified pediocin PA-1.

The format of series [4] is physicochemical. The text has this:
We then proceeded to clone the pediocin operon from P. acidilactici UL5 into pSIP-P27 vector for heterologous expression in other lactic acid bacteria viz. Lactiplantibacillus plantarum WCFS1, Lactococcus cremoris MG1363 and the well-established expression host, E. coli MG1655. The pediocin operon imparted anti-listerial activity to the L. plantarum culture supernatant but not to that of L. cremoris or E. coli (Figure 1A). Based on the degree of bioactivity, we concluded that the level of recombinant pediocin PA-1 accumulated in L. plantarum culture was […] that observed for P. acidilactici UL5 and was therefore not pursued further. Thus, for subsequent studies, we isolated pediocin PA-1 from P. acidilactici UL5 directly using the cell adsorption-desorption approach (Figure S2). […] We attempted to further purify the preparation using reverse phase HPLC with minimal enhancement in purity but a significant loss in yield (Figure S3). The peptide recovered after cell adsorption-desorption and dialysis was lyophilized for long-term storage to minimize any loss in activity. The peptide using this method was purified 189-fold with specific activity of 9,434 AU·mg^−1 as measured by agar-well diffusion method (Figure 1B, Figure S2A–C).

The next series deals with indicator strains. Kind of series: Agar-well diffusion assay, specific activity of the purified peptide. In kind it is cell-based. The note with it: agar-well diffusion method; peptide after cell adsorption-desorption and dialysis, purified 189-fold. On the procedure: Pediocin PA-1 is known to display narrow-spectrum activity against only a few species that include Lactobacillus coryniformis B-4390 and various Listeria species. We re-tested the antimicrobial spectrum of the pediocin PA-1 producer strain, Pediococcus acidilactici UL5, using agar-well diffusion assays against a few representative members of lactic acid bacteria (LAB) and Gram-negative, E. coli DH5α as a control (Figure S1). The effectiveness of the spent cell-free culture medium was evaluated by its ability to inhibit growth of the indicator strains as measured by zone of inhibition (ZOI). […] Therefore, we conclude that the primary antimicrobial secreted by P. acidilactici UL5 was pediocin PA-1.
We then proceeded to clone the pediocin operon from P. acidilactici UL5 into pSIP-P27 vector for heterologous expression in other lactic acid bacteria viz. Lactiplantibacillus plantarum WCFS1, Lactococcus cremoris MG1363 and the well-established expression host, E. coli MG1655. The pediocin operon imparted anti-listerial activity to the L. plantarum culture supernatant but not to that of L. cremoris or E. coli (Figure 1A). […] The peptide using this method was purified 189-fold with specific activity of 9,434 AU·mg^−1 as measured by agar-well diffusion method (Figure 1B, Figure S2A–C). […]
(In general: In agar diffusion tests the substance spreads into inoculated agar from a disc or well.)

The subject of the next series is E. coli. Kind of series: Cell-binding assay by flow cytometry. The note with it: Table S1. The method, then:
as §1

For another series, the system named is L. cremoris. Nature of the series: Cell-binding assay by flow cytometry. The arrangement: species or system Lactococcus cremoris. The note with it: Table S1, organism printed as L. lactis. The method, then: as §1
The subject of another series is B. subtilis. Kind of series: Cell-binding assay by flow cytometry. More on the design: species or system Bacillus subtilis. The method, then:
as §1

The next series relates to L. casei. Nature of the series: Cell-binding assay by flow cytometry. More on the design: species or system Lacticaseibacillus casei. The note with it: Table S1. The method, then:
as §1

The subject of series [5] is L. coryniformis. Nature of the series: Cell-binding assay by flow cytometry. The arrangement: species or system Lactobacillus coryniformis. The method, then:
as §1

Series [6] has as its system L. coryniformis. Nature of the series: Kill curve (growth at 600 nm after 24 h). The note with it: Figure 1C, start OD600 0.05, 96-well plate, 3 pM to 3 μM, 10-fold serial dilutions. In kind it is cell-based, Lactobacillus coryniformis. The method, then: as §2, §3
Setting [7] is: signal did not saturate, read-out: Apparent KD.
The mark [8] stands for this setting: Table S1, maximum mean fluorescence intensity.
Where [9] appears, read: flow cytometry, Atto488 conjugate up to 2 μM, 4 °C 30 min, 1 % BSA, 100 mM NaCl, Hill fit, read-out: Apparent KD.

Marks after values point to notes of the source that are not given here. No end group written: not given here. Some results are limits rather than exact numbers.

On to “15-mer-FITC: FITC-conjugated 15-mer (K20-A34) fragment of pediocin PA-1 (KATTCIINNGAMAWA; also: FITC-conjugated, site not given here; UniProt P29430 38-52, looked up, fragment)”, for which the “depletion in the proportion of L. seeligeri (fluorescence-negative population after FACS)” value in series [1] was “more than 50%”. In the series with E. faecium, the “binding (in words)” value was “modest binding”. In addition, the “binding at the tested pHs (in words)” value with L. seeligeri [2] (pH 4.0, 6.0 and 7.4, Figure S10) was “pH-dependent binding”. In addition, the Kd with L. seeligeri [2] (pH 6.0 sodium phosphate 5 mM, 1 % BSA, 100 mM NaCl, 4 °C 30 min, read-out: apparent KD) stood at 2800 ± 300 nM.
Consider “biosynthetic pediocin PA-1: class IIa bacteriocin partially purified from P. acidilactici UL5 by cell adsorption-desorption (KYYGNGVTCGKHSCSVDWGKATTCIINNGAMAWATGGHQGNHKC; UniProt P29430 19-62, looked up)”, for which the EC50 (in general, the concentration at which the effect is half-maximal) was around 13.3 nM in the series on L. seeligeri [3] and around 1 nM in the series with L. coryniformis [6]. The “stability of recovered peptide (in words)” value in series [4] is on record as “the peptide recovered at the acidic pH was found to be more stable”. In the series with indicator strains, the specific activity is given as 9,434 AU·mg^−1. The Hill co-efficient in the series on E. coli was 0.9; in the series on L. cremoris it was 0.7; in the series with B. subtilis (Table S1, Hill fit) it was 0.9; with L. casei, 0.7; with L. coryniformis [5] (Table S1, fit MFI = MFImax[S]^n/(KD^n+[S]^n)), 1.4. Besides, the Kd with E. coli (setting [7]) was above 2000 nM; in the series with L. cremoris (setting [7]), above 2000 nM; in the series with B. subtilis (setting [9]) it was 467 ± 167 nM; in the series with L. casei (setting [7]), above 2000 nM; with L. coryniformis [5] (setting [9]) it was 46 ± 8 nM. Further, the “MFImax (×10^3)” value was 7 ± 1 ×10^3 with B. subtilis (setting [8]), >2* ×10^3 in the series with L. casei (signal did not saturate) and 6.3 ± 0.3 ×10^3 in the series on L. coryniformis [5] (setting [8]).
